Data set [1] has as its target T1, EP2 (Homo sapiens, UniProt P43116). As to the kind of experiment: EP2 cAMP. In kind it is cell-based. An excerpt:
(§1) U.S. patent application Ser. No. 11/553,143, filed on Oct. 26, 2006, incorporated by reference herein, describes the methods used to obtain the in vitro data in the table below.

Data set [2] addresses T1, EP2. As to the kind of experiment: EP2 flipr. Format: cell-based.
From the text: as §1

The target of data set [3] is T1, EP2. As to the kind of experiment: EP2 binding (Ki).
From the text: as §1

In a further data set the target is EP4 (Homo sapiens, UniProt P35408). As to the kind of experiment: EP4 binding (KI).
EP4, sequence (P35408 whole entry): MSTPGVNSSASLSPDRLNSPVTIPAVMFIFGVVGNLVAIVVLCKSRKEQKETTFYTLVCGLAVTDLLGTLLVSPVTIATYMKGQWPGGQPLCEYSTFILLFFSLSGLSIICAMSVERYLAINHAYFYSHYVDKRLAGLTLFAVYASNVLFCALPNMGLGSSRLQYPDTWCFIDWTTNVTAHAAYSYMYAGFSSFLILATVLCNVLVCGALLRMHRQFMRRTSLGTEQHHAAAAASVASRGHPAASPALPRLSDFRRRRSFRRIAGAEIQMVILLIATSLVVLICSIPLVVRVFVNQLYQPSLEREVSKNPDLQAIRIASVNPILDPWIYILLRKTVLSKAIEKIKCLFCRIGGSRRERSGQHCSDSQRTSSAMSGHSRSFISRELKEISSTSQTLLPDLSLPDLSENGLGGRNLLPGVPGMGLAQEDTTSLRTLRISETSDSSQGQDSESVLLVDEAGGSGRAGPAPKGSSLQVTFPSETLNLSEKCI
From the text: as §1

In the next data set the target is T2, hEP3A (Homo sapiens, UniProt P43115).
T2 sequence (P43115 1-390): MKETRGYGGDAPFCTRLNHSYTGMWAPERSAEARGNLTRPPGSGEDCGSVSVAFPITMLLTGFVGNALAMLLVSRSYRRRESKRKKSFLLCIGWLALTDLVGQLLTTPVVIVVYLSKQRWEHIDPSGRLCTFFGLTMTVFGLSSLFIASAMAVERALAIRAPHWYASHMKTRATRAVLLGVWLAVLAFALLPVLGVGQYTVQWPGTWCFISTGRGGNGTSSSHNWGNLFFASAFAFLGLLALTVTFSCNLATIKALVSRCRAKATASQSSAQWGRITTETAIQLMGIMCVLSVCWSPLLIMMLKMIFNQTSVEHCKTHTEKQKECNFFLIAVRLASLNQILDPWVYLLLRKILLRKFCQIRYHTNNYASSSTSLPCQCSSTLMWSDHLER
As to the kind of experiment: Other Receptors, hEP3A. In kind it is cell-based.
From the text: as §1

The target in a further data set is T3, hDP (Homo sapiens, UniProt Q13258).
T3 sequence (Q13258 1-359): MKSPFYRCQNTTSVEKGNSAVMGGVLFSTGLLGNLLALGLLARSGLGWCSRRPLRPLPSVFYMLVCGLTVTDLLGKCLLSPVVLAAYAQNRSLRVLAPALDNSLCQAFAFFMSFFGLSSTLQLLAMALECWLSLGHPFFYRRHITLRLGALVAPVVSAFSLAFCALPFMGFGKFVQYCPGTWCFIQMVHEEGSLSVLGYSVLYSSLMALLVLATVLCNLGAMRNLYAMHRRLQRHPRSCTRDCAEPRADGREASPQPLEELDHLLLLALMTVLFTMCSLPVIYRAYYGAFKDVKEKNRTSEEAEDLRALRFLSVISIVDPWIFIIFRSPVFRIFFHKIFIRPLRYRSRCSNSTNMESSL
Briefly: Other Receptors, hDP. In kind it is cell-based.
From the text: as §1

The subject of the next data set is normotensive dogs. Briefly: Ocular surface hyperemia in normotensive dogs. The conditions noted are these: 0.003%, once daily for 5 days, maximum at 26 h. Format: in vivo. As to the method: U.S. Pat. No. 7,091,231 describes the methods used to carry out the tests reported below.
Isopropyl 5-(3-(3-(4-(1-hydroxyhexyl)phenyl)-2,5-dioxoimidazolidin-4-yl)propyl)thiophene-2-carboxylate (31) was tested in normotensive dogs at 0.003%, dosing once daily for 5 days. The maximum intraocular pressure (IOP) decrease from baseline was 7.7 mmHg (45%) at 102 h; the maximum ocular surface hyperemia (OSH) score was 2.5 at 26 h.

We go through three molecules from patent publication US7795287B2, “Therapeutic substituted hydantoins and related compounds” (Allergan, Inc., priority 2006, dated 2010).

One may read the EC50 as the concentration at which the effect is half-maximal. A lower EC50 goes with an effect from little substance. By Ki is commonly meant the dissociation constant of the complex between target and ligand, obtained from inhibition or displacement. A lower Ki goes with a stronger hold on the target.

T1 sequence (P43116 whole entry): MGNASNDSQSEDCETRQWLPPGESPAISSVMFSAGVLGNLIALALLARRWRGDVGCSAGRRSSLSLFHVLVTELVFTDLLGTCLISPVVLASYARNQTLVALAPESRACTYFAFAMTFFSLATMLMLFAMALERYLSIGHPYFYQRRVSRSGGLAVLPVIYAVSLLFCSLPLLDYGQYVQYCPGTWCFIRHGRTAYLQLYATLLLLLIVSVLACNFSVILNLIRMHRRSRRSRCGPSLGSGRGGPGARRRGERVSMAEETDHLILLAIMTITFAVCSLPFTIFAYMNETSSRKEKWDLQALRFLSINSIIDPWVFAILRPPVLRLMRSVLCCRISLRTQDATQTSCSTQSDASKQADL

`CCCCCC(=O)c1ccc(N2C(=O)NC(=O)C2CCCc2ccc(C(=O)O)s2)cc1` (centres unmarked) displayed an EC50 at EP2 [1] of 0.2 nM.
With `CCCCCC(O)c1ccc(N2C(=O)NC(=O)C2CCCc2ccc(C(=O)O)s2)cc1` (centres unmarked), the EC50 at EP2 [2] turned out to be 3.5 nM; on EP2 [1], 0.1 nM; at hEP3A it was 10 nM; at hDP, 17400 nM. Besides, the Ki is 5 nM at EP2 [3] and more than 10000 nM at EP4.
For `CCCCCC(O)c1ccc(N2C(=O)NC(=O)C2CCCc2ccc(C(=O)OC(C)C)s2)cc1` (centres unmarked) [Compound 31, Isopropyl 5-(3-(3-(4-(1-hydroxyhexyl)phenyl)-2,5-dioxoimidazolidin-4-yl)propyl)thiophene-2-carboxylate], the “maximum ocular surface hyperemia (OSH) score” value in the data set on normotensive dogs was determined as 2.5.
